# Source: patent US6803385B2, “Hydroxyeicosatetraenoic acid analogs and methods of their use in treating dry eye disorders” (Alcon, Inc., priority 1999, dated 2004)
# Tested on: rabbit model of dry eye (corneal staining)
# Experiment: Inhibition of corneal staining in a rabbit model of dry eye (ConA lacrimal gland inflammation plus desiccation, methylene blue uptake)
# Assay type: in vivo, New Zealand white rabbits
# Details: 1 μM, topical QID 50 μl, methylene blue corneal staining (A660) vs BSS vehicle
# Protocol: Compounds 173 and 175 were evaluated for their ability to inhibit corneal staining in a rabbit model of dry eye, as per the following experimental protocol.
# New Zealand white (NZA) rabbits (approximately 2.5 kg) were obtained from Myrtle's Rabbitry (Thompson Station, Tenn.). Animals were maintained in a controlled environment with a 12-hour on/off light cycle at 65±5° F. and at least 30% humidity. All aspects of animal handling, housing and experimentation conformed to the ARVO Statement for the Use of Animals in Ophthalmic and Vision Research.
# Rabbits were randomized and dosed topically QID with 50 μl of test article or BSS® solution beginning 24 hours prior to lacrimal gland injection. […]
# Desiccation was initiated three days following ConA injection by placing conscious rabbits into an environmental chamber (20%-30% humidity/75° F.). […] The concentration of the extracted dye was determined spectrophotometrically by measuring its absorbance at λ=660 nanometers (A660). Data are expressed as mean±standard deviation (S.D.). Percent inhibition was calculated as {1−[(A660test item−A660Normal)/(A660BSS−A660Normal)]}×100, where A660test item is the absorbance of dye from ConA-injected eyes dosed with the test item, A660Normal is the absorbance of dye from saline-injected eyes, and A660BSS is the absorbance of dye in ConA-injected eyes dosed with BSS® solution vehicle.
smiles,measurement,setting,value
"CCCCC[C@H](O)/C=C/C=C\C/C=C\C/C=C\CCCC(=O)O [Compound 15S-HETE, (15S)-(5Z,8Z,11Z,13E)-15-hydroxy-eicosa-5,8,11,13-tetraenoic acid]",% Inhibition ± S.D.,Experiment 1,70 ± 18%
same,% Inhibition ± S.D.,Experiment 2,77% ± 18%
